Measurements reported in patent US8772266B2, “Fungicide pyrazole carboxamides derivates” (Bayer Cropscience AG, priority 2009, dated 2014).

Legend:
[1] = logP by HPLC on reversed-phase column (EEC Directive 79/831 Annex V.A8); conditions: 40° C., 0.1% aqueous formic acid and acetonitrile, linear gradient 10% to 90% acetonitrile
Fusarium nivale = assay: In vivo curative test on Fusarium nivale (wheat); conditions: 500 ppm of active ingredient, evaluated 8 days after inoculation
Sphaerotheca fuliginea = assay: In vivo preventive test on Sphaerotheca fuliginea (cucumber), Example G; conditions: 10 ppm of active ingredient, evaluated 7 days after inoculation
Text: After the spray coating has dried on, the plants are inoculated with an aqueous spore suspension of Sphaerotheca fuliginea.

[2] = HPLC, reversed-phase column (C 18)
[3] = HPLC on reversed-phase column (C 18)

logP [1, 3] | Structure (SMILES) | logP [1, 2] | disease control (Fusarium nivale) [%] | disease control (Sphaerotheca fuliginea) [%]
– | CC(c1cccc2c1CCC(C)(C)C2)N(C(=O)c1c(C(F)F)nn(C)c1F)C1CC1 (racemic) [Example 44] | 4.89 | 100 | –
– | Cc1cc(C)cc(C(C)N(C(=O)c2c(C(F)F)nn(C)c2F)C2CC2)c1 (racemic) [Example 46] | 3.8 | 100 | –
– | CC(c1cccc2c1CCCC2)N(C(=O)c1c(C(F)F)nn(C)c1F)C1CC1 (racemic) [Example 51] | 4.14 | 100 | –
– | CC(c1cccc2c1OC(F)(F)O2)N(C(=O)c1c(C(F)F)nn(C)c1F)C1CC1 (racemic) [Example 72] | 3.58 | – | 100
– | Cn1nc(C(F)F)c(C(=O)N(Cc2cc(Cl)ccc2Br)C2CC2)c1F [Example 4] | 3.67 | 100 | –
– | Cn1nc(C(F)F)c(C(=O)N(Cc2ccccc2I)C2CC2)c1F [Example 9] | 3.37 | 100 | –
– | Cn1nc(C(F)F)c(C(=O)N(Cc2c(F)cccc2[Si](C)(C)C)C2CC2)c1F [Example 11] | 4.31 | – | 100
– | Cc1ccc(C(F)(F)F)c(CN(C(=O)c2c(C(F)F)nn(C)c2F)C2CC2)c1 [Example 12] | 3.78 | – | 100
– | CC[Si](C)(C)c1ccccc1CN(C(=O)c1c(C(F)F)nn(C)c1F)C1CC1 [Example 13] | 4.75 | – | 100
– | Cn1nc(C(F)F)c(C(=O)N(Cc2cc(F)c(Br)cc2Br)C2CC2)c1F [Example 16] | 3.96 | 100 | –
– | Cc1cc(Br)c(CN(C(=O)c2c(C(F)F)nn(C)c2F)C2CC2)cc1Br [Example 17] | 4.19 | 100 | –
– | Cn1nc(C(F)F)c(C(=O)N(Cc2ccc(Cl)cc2I)C2CC2)c1F [Example 20] | 3.99 | 100 | –
– | Cn1nc(C(F)F)c(C(=O)N(Cc2cc(Cl)c(Cl)cc2C(F)(F)F)C2CC2)c1F [Example 25] | 4.34 | 100 | –
– | CCCCCc1cccc(Cl)c1CN(C(=O)c1c(C(F)F)nn(C)c1F)C1CC1 [Example 27] | 5 | – | 100
– | CC(C)Cc1cccc(Cl)c1CN(C(=O)c1c(C(F)F)nn(C)c1F)C1CC1 [Example 32] | 4.44 | – | 100
– | Cn1nc(C(F)F)c(C(=O)N(Cc2ccccc2C2CC2)C2CC2)c1F [Example 47] | 3.44 | – | 100
– | Cn1nc(C(F)F)c(C(=O)N(Cc2c([Si](C)(C)C)ccc(F)c2F)C2CC2)c1F [Example 49] | 4.36 | – | 100
– | CC(c1ncc(Cl)cc1Cl)N(C(=O)c1c(C(F)F)nn(C)c1F)C1CC1 (stereo not shown) [Example 62] | 3.48 | – | 100
– | Cn1nc(C(F)F)c(C(=O)N(Cc2c(C(F)(F)F)ccc(F)c2F)C2CC2)c1F [Example 68] | 3.31 | – | 100
– | CC(c1ccc(Cl)cc1Cl)N(C(=O)c1c(C(F)F)nn(C)c1F)C1CC1 (stereo not shown) [Example 70] | 3.83 | – | 100
– | Cn1nc(C(F)F)c(C(=O)N(Cc2ccccc2C2CCCC2)C2CC2)c1F [Example 82] | 4.2 | – | 100
– | Cn1nc(C(F)F)c(C(=O)N(Cc2c(Cl)cccc2Br)C2CC2)c1F [Example 83] | 3.42 | – | 100
– | Cn1nc(C(F)F)c(C(=O)N(C2CC2)C2CCC(C)(C)c3ccccc32)c1F (stereo not shown) [Example 99] | 4.16 | – | 100
3.92 | CC(c1cc(Cl)ccc1C(F)(F)F)N(C(=O)c1c(C(F)F)nn(C)c1F)C1CC1 (stereo not shown) [Example 101] | – | – | 100
4.36 | CC(C)c1ccccc1CN(C(=S)c1c(C(F)F)nn(C)c1F)C1CC1 [Example 131] | – | – | 100
4.23 | Cn1nc(C(F)F)c(C(=S)N(Cc2c(Cl)cccc2C(F)(F)F)C2CC2)c1F [Example 132] | – | – | 100
